The text below walks through data of patent US12613179B2, “Label-free electrical monitoring of cell aggregates” (NANYANG TECHNOLOGICAL UNIVERSITY, priority 2020, dated 2026).

The subject of the experiment is cell aggregates modelling cancer tumoroids. Description: drug susceptibility testing of cell aggregates by EIS-based electrical signatures and optical microscopy. As to the method:
In another set of experiments, the method of the present disclosure is shown to be useful in the continuous monitoring of the physiological and/or morphological changes of cell aggregates in drug susceptibility testing. Paclitaxel (PTX), a common anti-cancer drug for several types of cancers, was provided at different concentrations ranging from 0 nM (nanoMole) to 500 nM to cultures of cell aggregates modelling cancer tumoroids and observed over a period of 24 hours. […] Based on optical microscopy, it can be appreciated that there are hardly any distinguishable differences between the cell aggregate image at 100 nM of PTX and the cell aggregate images at 200 nM PTX or 500 nM PTX. […] Conventionally, it would have required testing the extracellular environment for metabolites to determine such a change. In contrast, by considering the two EIS-based electrical signatures of electrical size and opacity, more information on the effect of drug treatment can be determined. […] The two EIS-based electrical signatures together are able to indicate that the physiological state of the cells undergo substantive changes only after the drug concentration is raised to 500 nM. This is consistent with what is known of the drug treatment modelled in these experiments, and validates the usefulness of the EIS-based electrical signatures in monitoring physiological and/or morphological changes in 3D cell aggregates.

As to `CC(=O)O[C@H]1C(=O)[C@@]2(C)[C@H]([C@H](OC(=O)c3ccccc3)[C@]3(O)C[C@H](OC(=O)[C@H](O)[C@@H](NC(=O)c4ccccc4)c4ccccc4)C(C)=C1C3(C)C)[C@]1(OC(C)=O)CO[C@@H]1C[C@@H]2O` [Paclitaxel], the “optical size of the cell aggregate (optical microscopy)” value (100 nM PTX, 24 hours, FIG. 17A) is given as “started to decrease”. In addition, the “electrical size of the cell aggregates” value (500 nM PTX, observed over 24 hours, FIG. 17B, 0 nM control 300±41.8 μm) was 281±40.3 μm. The “opacity of the cell aggregates” value (drug concentration increased from 0 nM to 500 nM, 24 hours, FIG. 17C) was “remains relatively unchanged”.
